Test results: patent publication US20190077795A1, “ARGININE […] INHIBITORS AND USES THEREOF” (Epizyme, Inc., priority 2014, published 2019)
Read-outs that look alike come from different tables or passages of the source.

Experiments:
human PRMT8 = human PRMT8 (Homo sapiens, UniProt Q9NR22); assay: PRMT8 Biochemical Assay; details: PRMT8 IC50 (uM), peptide substrate, 3H-SAM Flashplate assay
Source text: S-adenosylmethionine (SAM), S-adenosylhomocysteine (SAH), bicine, Tween20, dimethylsulfoxide (DMSO), bovine skin gelatin (BSG), isopropyl-3-D-thiogalactopyranoside (IPTG), and Tris(2-carboxyethyl)phosphine hydrochloride solution (TCEP) were purchased from Sigma-Aldrich at the highest level of purity possible. ^3H-SAM was purchase from American Radiolabeled Chemicals with a specific activity of 80 Ci/mmol. 384-well streptavidin Flashplates were purchased from PerkinElmer.
E. coli (BL21(DE3) Gold, Stratagene) made competent by the CaCl2 method were transformed with the PRMT8 construct and ampicillin selection. Protein over-expression was accomplished by growing the PRMT8 expressing E. coli clone and inducing expression with 0.3 mM IPTG at 16° C. The culture was grown for 12 hours, harvested by centrifugation, and stored at −80° C. for purification.
GST-tagged PRMT8 was eluted with 50 mM Tris, 2 mM glutathione, pH 7.8. Pooled fractions were cleaved by thrombin (10U) and dialysed in buffer A. GST was removed by reloading the cleaved protein sample onto glutathione sepharose column and PRMT8 was collected in the flow-through fractions. PRMT8 was purified further by ceramic hydroxyapatite chromatography. The column was washed with 50 mM phosphate buffer, 100 mM NaCl, 5% glycerol, 5 mM β-mercaptoethanol, pH 7.8 and PRMT8 was eluted by 100 mM phosphate in the same buffer. Protein was concentrated and buffer was exchanged to 50 mM Tris, 300 mM NaCl, 10% glycerol, 5 mM β-mercaptoethanol, pH 7.8 by ultrafiltration.
General Procedure for PRMT8 Enzyme Assays on Peptide Substrates.
The assays were all performed in a buffer consisting of 20 mM Bicine (pH=7.6), 1 mM TCEP, 0.005% BSG, and 0.002% Tween 20, prepared on the day of use. […] DMSO (1 ul) was added to Columns 11, 12, 23, 24, rows A-H for the maximum signal control and 1 ul of SAH, a known product and inhibitor of PRMT8, was added to columns 11, 12, 23, 24, rows I-P for the minimum signal control. A cocktail (40 ul) containing the PRMT8 enzyme was added by Multidrop Combi (Thermo-Fisher). The compounds were allowed to incubate with PRMT8 for 30 min at room temperature, then a cocktail (10 ul) containing ^3H-SAM and peptide was added to initiate the reaction (final volume=51 ul). […] The assays were stopped by the addition of non-radiolabeled SAM (10 ul) to a final concentration of 400 uM, which dilutes the ^3H-SAM to a level where its incorporation into the peptide substrate is no longer detectable. 50 ul of the reaction in the 384-well polypropylene plate was then transferred to a 384-well Flashplate and the biotinylated peptides were allowed to bind to the streptavidin surface for at least 1 hour before being washed once with 0.1% Tween20 in a Biotek ELx405 plate washer. The plates were then read in a PerkinElmer TopCount plate reader to measure the quantity of ^3H-labeled peptide bound to the Flashplate surface, measured as disintegrations per minute (dpm) or alternatively, referred to as counts per minute (cpm).
Where dpm=disintegrations per minute, cmpd=signal in assay well, and min and max are the respective minimum and maximum signal controls.
Where top and bottom are the normally allowed to float, but may be fixed at 100 or 0 respectively in a 3-parameter fit. The Hill Coefficient normally allowed to float but may also be fixed at 1 in a 3-parameter fit. Y is the % inhibition and X is the compound concentration.

human PRMT6 = target: T1, human PRMT6 (Homo sapiens, UniProt Q96LA8); assay: PRMT6 Biochemical Assay
T1 construct: Flag-PRMT6-His; made in house; host or cells: HEK 293F cells (BacMam baculovirus, pFastBacMam)

[1] = tested on: mono-methyl arginine in RKO cells; assay: RKO Methylation Assay, In Cell Western (ICW); assay type: cell-based; details: 72 hours
human PRMT1 = target: T2, human PRMT1 (Homo sapiens, UniProt Q99873); assay: PRMT1 Biochemical Assay; details: peptide substrate, 3H-SAM Flashplate assay; read-out: PRMT1 IC50
T2 construct: GST-tagged PRMT1; made in house; host or cells: High Five insect cells (baculovirus, pFastBac1)
In short: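 GST-tagged PRMT1 from baculovirus-infected cells, preincubated with compounds 30 min at room temperature in 20 mM Bicine pH 7.6, 1 mM TCEP, 0.005% BSG, 0.002% Tween 20. Reaction started with ³H-SAM plus biotinylated peptide, stopped with 300 µM cold SAM.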

[2] = peptide substrate, 3H-SAM Flashplate assay, read-out: PRMT6 IC50

T2 sequence (Q99873 with tags, fused parts or gaps): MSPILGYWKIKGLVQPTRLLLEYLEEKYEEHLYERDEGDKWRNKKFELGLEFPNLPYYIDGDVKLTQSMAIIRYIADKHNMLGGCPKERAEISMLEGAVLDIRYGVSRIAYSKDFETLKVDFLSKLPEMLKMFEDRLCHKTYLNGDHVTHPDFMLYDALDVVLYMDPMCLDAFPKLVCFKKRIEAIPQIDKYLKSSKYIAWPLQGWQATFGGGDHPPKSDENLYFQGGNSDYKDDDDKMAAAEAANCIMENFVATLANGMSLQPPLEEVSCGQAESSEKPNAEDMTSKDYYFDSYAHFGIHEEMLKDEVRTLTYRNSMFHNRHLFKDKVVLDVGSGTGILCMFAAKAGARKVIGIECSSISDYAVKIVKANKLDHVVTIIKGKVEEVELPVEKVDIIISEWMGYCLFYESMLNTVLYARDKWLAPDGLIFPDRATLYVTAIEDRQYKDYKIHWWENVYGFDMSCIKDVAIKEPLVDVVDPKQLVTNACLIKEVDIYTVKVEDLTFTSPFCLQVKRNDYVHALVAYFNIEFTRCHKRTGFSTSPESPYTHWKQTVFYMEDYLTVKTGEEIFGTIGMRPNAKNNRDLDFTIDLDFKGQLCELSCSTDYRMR
T1 sequence (Q96LA8 with tags, fused parts or gaps): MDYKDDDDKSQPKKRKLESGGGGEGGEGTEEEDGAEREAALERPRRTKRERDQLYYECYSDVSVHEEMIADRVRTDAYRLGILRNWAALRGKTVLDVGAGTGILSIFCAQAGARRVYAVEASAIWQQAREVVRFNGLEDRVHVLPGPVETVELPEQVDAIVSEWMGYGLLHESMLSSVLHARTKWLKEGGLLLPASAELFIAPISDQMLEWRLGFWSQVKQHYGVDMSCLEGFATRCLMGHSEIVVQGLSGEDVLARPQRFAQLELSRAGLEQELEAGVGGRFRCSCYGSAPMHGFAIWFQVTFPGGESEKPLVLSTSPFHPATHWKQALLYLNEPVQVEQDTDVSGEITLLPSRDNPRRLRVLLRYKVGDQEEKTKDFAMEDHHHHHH
human PRMT8, sequence (Q9NR22 whole entry): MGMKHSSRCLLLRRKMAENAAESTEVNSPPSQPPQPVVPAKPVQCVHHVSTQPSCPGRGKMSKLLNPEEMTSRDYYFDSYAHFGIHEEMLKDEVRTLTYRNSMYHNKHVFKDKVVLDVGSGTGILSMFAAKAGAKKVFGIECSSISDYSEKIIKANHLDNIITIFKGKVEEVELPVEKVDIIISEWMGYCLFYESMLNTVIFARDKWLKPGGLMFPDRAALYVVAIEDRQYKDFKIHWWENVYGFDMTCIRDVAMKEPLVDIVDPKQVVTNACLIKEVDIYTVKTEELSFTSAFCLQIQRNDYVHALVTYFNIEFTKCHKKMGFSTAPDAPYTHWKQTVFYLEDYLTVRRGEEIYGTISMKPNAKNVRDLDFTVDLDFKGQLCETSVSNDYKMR

In the case of `CNCCN(C)Cc1c[nH]nc1-c1ccc(OC(CO)CC(C)C)cc1` (stereo not drawn) [Compound 118], the IC50 (human PRMT8) is reported as 0.0955 µM, the IC50 (human PRMT6; [2]) is reported as 0.0342 µM and the “ICW EC30” value [1] is reported as 1175 nM. The IC50 (human PRMT1) was 41.2 nM.

In the case of `CNCCN(C)Cc1c[nH]nc1-c1ccc(OC2CCOCC2)nc1` [Compound 119], the IC50 (human PRMT8) is reported as 0.123 µM, the IC50 (human PRMT6; [2]) is reported as 0.0329 µM and the “ICW EC30” value [1] is reported as 1292 nM. For the same compound, the IC50 (human PRMT1) was 41.5 nM.

With `CNCCN(C)Cc1c[nH]nc1-c1ccc(OCCOC)nc1` [Compound 121] the IC50 (human PRMT8) was 0.163 µM, the IC50 (human PRMT6; PRMT6 IC50 (uM)) was 0.0886 µM and the “ICW EC30” value [1] was 1472 nM. For the same compound, the IC50 (human PRMT1) was 42.3 nM.

In the case of `CCOCC(C)(C)c1cc(OCCOC)cc(-c2n[nH]cc2CN(C)CCNC)c1` [Compound 122], the IC50 (human PRMT8) is reported as 0.371 µM, the IC50 (human PRMT6; [2]) is reported as > 10 µM and the “ICW EC30” value [1] is reported as 6626 nM. It also gave an IC50 (human PRMT1) of 43 nM.

In the case of `CNCCN(C)Cc1c[nH]nc1-c1cc(OC2CCOCC2)cc(C(F)(F)F)c1` [Compound 123], the IC50 (human PRMT8) is reported as 0.376 µM, the IC50 (human PRMT6; [2]) is reported as 1.47 µM and the “ICW EC30” value [1] is reported as 18364 nM. The IC50 (human PRMT1) was 43.9 nM.

`CN(CCN)Cc1c[nH]nc1-c1ccc(N2CCOCC2)cc1` [Compound 124] was tested, and the IC50 (human PRMT8) was 0.413 µM, the IC50 (human PRMT6; [2]) was 0.107 µM and the “ICW EC30” value [1] was 3978 nM. It also gave an IC50 (human PRMT1) of 44.3 nM.

In the case of `CNCCN(C)Cc1c[nH]nc1-c1ccc(OCCC(O)CO)cc1` (stereo not drawn) [Compound 125], the IC50 (human PRMT8) is reported as 0.269 µM, the IC50 (human PRMT6; [2]) is reported as 0.0548 µM and the “ICW EC30” value [1] is reported as 10450 nM. The IC50 (human PRMT1) was 45.5 nM.

With `CNCCN(C)Cc1cnn(C)c1-c1cccc(OC2CC2)c1` [Compound 126] the IC50 (human PRMT8) was 0.0446 µM, the IC50 (human PRMT6; [2]) was 0.0737 µM and the “ICW EC30” value [1] was 1272 nM. For the same compound, the IC50 (human PRMT1) was 45.5 nM.

`CCN(c1ccc(-c2n[nH]cc2CN(C)CCNC)cn1)C1CCOCC1` [Compound 127] was tested, and the IC50 (human PRMT8) was 0.467 µM, the IC50 (human PRMT6; [2]) was 3.45 µM and the “ICW EC30” value [1] was 9190 nM. The IC50 (human PRMT1) was 45.9 nM.

With `CNCCN(C)Cc1c[nH]nc1-c1ccc(OCCCS(C)(=O)=O)cc1` [Compound 128] the IC50 (human PRMT8) was 0.131 µM, the IC50 (human PRMT6; [2]) was 0.0343 µM and the “ICW EC30” value [1] was 13334 nM. The IC50 (human PRMT1) was 46.4 nM.

For `CNCCN(C)Cc1cnn(C)c1-c1cccc(CC(C)C)c1` [Compound 129], the IC50 (human PRMT8) was 0.0877 µM, the IC50 (human PRMT6; [2]) was 0.219 µM and the “ICW EC30” value [1] was 7415 nM. It also gave an IC50 (human PRMT1) of 47.5 nM.

`CNCCN(C)Cc1c[nH]nc1-c1cc(OCCCO)cc(C(F)(F)F)c1` [Compound 130] was tested, and the IC50 (human PRMT8) was 0.3 µM, the IC50 (human PRMT6; [2]) was 0.619 µM and the “ICW EC30” value [1] was 11844 nM. For the same compound, the IC50 (human PRMT1) was 48.9 nM.

With `CCOCC(C)c1cc(OCCOC)cc(-c2n[nH]cc2CN(C)CCNC)c1` (stereo not drawn) [Compound 132] the IC50 (human PRMT8) was 0.15 µM, the IC50 (human PRMT6; [2]) was > 10 µM and the “ICW EC30” value [1] was 3608 nM. For the same compound, the IC50 (human PRMT1) was 49.4 nM.

For `CNCCN(C)Cc1n[nH]cc1-c1cc(C(=O)C(C)C)cc(C(F)(F)F)c1` [Compound 134], the IC50 (human PRMT8) was 0.168 µM, the IC50 (human PRMT6; [2]) was 2.07 µM and the “ICW EC30” value [1] was >6700 nM. It also gave an IC50 (human PRMT1) of 121 nM.

With `CNCCN(C)Cc1c[nH]nc1-c1ccc(OCCOc2ccc(OC)cc2)cc1` [Compound 135] the IC50 (human PRMT8) was 0.0336 µM, the IC50 (human PRMT6; [2]) was 0.00405 µM and the “ICW EC30” value [1] was 86 nM. For the same compound, the IC50 (human PRMT1) was 5.85 nM.

In the case of `CNCCN(C)Cc1c[nH]nc1-c1ccc(N(C)CCCOc2ccc(OC)cc2)cc1` [Compound 136], the IC50 (human PRMT8) is reported as 0.0124 µM, the IC50 (human PRMT6; [2]) is reported as 0.00825 µM and the “ICW EC30” value [1] is reported as 176.2 nM. The IC50 (human PRMT1) was 5.21 nM.

With `CNCCN(C)Cc1c[nH]nc1-c1ccc(OCCOc2ccc(C(F)(F)F)cc2)cc1` [Compound 138] the IC50 (human PRMT8) was 0.0366 µM, the IC50 (human PRMT6; [2]) was 0.00977 µM and the “ICW EC30” value [1] was 327.8 nM. The IC50 (human PRMT1) was 6.08 nM.

`CNCCN(C)Cc1c[nH]nc1-c1ccc(OCCOc2ccc(OC(F)(F)F)cc2)cc1` [Compound 140] was tested, and the IC50 (human PRMT8) was 0.0526 µM, the IC50 (human PRMT6; [2]) was 0.00703 µM and the “ICW EC30” value [1] was 470 nM. For the same compound, the IC50 (human PRMT1) was 6.83 nM.

`CNCCN(C)Cc1cnn(C2CCC2)c1-c1ccc(OC(C)C)cc1` [Compound 141] was tested, and the IC50 (human PRMT8) was 0.056 µM, the IC50 (human PRMT6; [2]) was 0.0869 µM and the “ICW EC30” value [1] was 496 nM. For the same compound, the IC50 (human PRMT1) was 65.8 nM.

`CNCCN(C)Cc1c[nH]nc1-c1ccc(OCCOc2cccc(CO)c2)cc1` [Compound 143] was tested, and the IC50 (human PRMT8) was 0.0258 µM, the IC50 (human PRMT6; [2]) was 0.00448 µM and the “ICW EC30” value [1] was 544.3 nM. The IC50 (human PRMT1) was 6.69 nM.

For `CNCCN(C)Cc1c[nH]nc1-c1ccc(OCCOc2ccc(C(C)C)cc2)cc1` [Compound 144], the IC50 (human PRMT8) was 0.03 µM, the IC50 (human PRMT6; [2]) was 0.00574 µM and the “ICW EC30” value [1] was 654.6 nM. The IC50 (human PRMT1) was 6.43 nM.
